In patent US20260209250A1, “CRYSTAL FORM OF KRAS G12D INHIBITOR AND PREPARATION METHOD THEREFOR” (priority 2022, published 2026):

Columns and labels:
[1] = Long-term/accelerated stability; format: physicochemical
[2] = Crystal form stability study (influencing factor experiments); format: physicochemical; settings: for Physical and chemical properties (conclusion of influencing factor experiments): high temperatures and high humidities for 30 days
Protocol: Samples of the crystal forms A, B, C, I, J, and K of the compound represented by formula (I) were taken, spread in open containers, and left to stand under conditions of light exposure (4500 Lux), high temperatures (40° C. and 60° C.), and high humidities (RH 75% and RH 92.5%) for 30 days to investigate their stability, and the results are shown in Table 16.

[3] = 40° C., 10 days, open container
[4] = 40° C., 30 days, open container
[5] = 60° C., 10 days, open container
[6] = 60° C., 30 days, open container
[7] = 75% RH, 10 days, open container
[8] = 75% RH, 30 days, open container
[9] = 92.5% RH, 5 days, open container
[10] = 92.5% RH, 10 days, open container
[11] = 92.5% RH, 30 days, open container
[12] = light exposure (4500 Lux), 5 days, open container
[13] = light exposure (4500 Lux), 10 days, open container
[14] = light exposure (4500 Lux), 30 days, open container

CCc1c(F)ccc2cc(O)cc(-c3nc4c5c(nc(OC[C@@]67CCCN6C[C@H](F)C7)nc5c3F)N3C[C@H]5CC[C@H](N5)[C@H]3CO4)c12 [Crystal form A, 5-Ethyl-6-fluoro-4-((5aS,6S,9R)-1-fluoro-12-(((2R,7aS)-2-fluorotetrahydro-1H-pyrrolizin-7a(5H)-yl)methoxy)-5a,6,7,8,9,10-hexahydro-5H-4-oxa-3,10a,11,13,14-pentaaza-6,9-methanonaphtho[1,8-ab]heptalen-2-yl)naphthalen-2-ol]
Purity % 1 month ([1]; 25° C./60% RH): 99.3% | Purity % 3 months ([1]; 25° C./60% RH): 99.3% | Purity % 6 months ([1]; 25° C./60% RH): 99.3% | Purity % Initial ([1]; 25° C./60% RH): 99.3% | Purity % 1 month ([1]; 40° C./75% RH): 99.3% | Purity % 3 months ([1]; 40° C./75% RH): 99.2% | Purity % 6 months ([1]; 40° C./75% RH): 99.1% | Purity % Initial ([1]; 40° C./75% RH): 99.3% | Color and state ([2]; 40° C., 5 days, open container): Off-white solid | Crystal form ([2]; 40° C., 5 days, open container): Did not change | Purity % ([2]; 40° C., 5 days, open container): 99.2% | Color and state [2, 3]: Off-white solid | Crystal form [2, 3]: Did not change | Purity % [2, 3]: 99.2% | Color and state [2, 4]: Off-white solid | Crystal form [2, 4]: Did not change | Purity % [2, 4]: 99.1% | Color and state ([2]; 60° C., 5 days, open container): Off-white solid | Crystal form ([2]; 60° C., 5 days, open container): Did not change | Purity % ([2]; 60° C., 5 days, open container): 99.1% | Color and state [2, 5]: Off-white solid | Crystal form [2, 5]: Did not change | Purity % [2, 5]: 99.0% | Color and state [2, 6]: Off-white solid | Crystal form [2, 6]: Did not change | Purity % [2, 6]: 98.5% | Color and state ([2]; 75% RH, 5 days, open container): Off-white solid | Crystal form ([2]; 75% RH, 5 days, open container): Did not change | Purity % ([2]; 75% RH, 5 days, open container): 99.3% | Color and state [2, 7]: Off-white solid | Crystal form [2, 7]: Did not change | Purity % [2, 7]: 99.3% | Color and state [2, 8]: Off-white solid | Crystal form [2, 8]: Did not change | Purity % [2, 8]: 99.3% | Color and state [2, 9]: Off-white solid | Crystal form [2, 9]: Did not change | Purity % [2, 9]: 99.3% | Color and state [2, 10]: Off-white solid | Crystal form [2, 10]: Did not change | Purity % [2, 10]: 99.4% | Color and state [2, 11]: Off-white solid | Crystal form [2, 11]: Did not change | Purity % [2, 11]: 99.3% | Color and state ([2]; Initial, 0 days): Off-white solid | Purity % ([2]; Initial, 0 days): 99.3% | Physical and chemical properties (conclusion of influencing factor experiments) [2]: good physical and chemical properties | Color and state [2, 12]: Off-white solid | Crystal form [2, 12]: Did not change | Purity % [2, 12]: 98.7% | Color and state [2, 13]: Off-white solid | Crystal form [2, 13]: Did not change | Purity % [2, 13]: 98.5% | Color and state [2, 14]: Pale yellow solid | Crystal form [2, 14]: Did not change | Purity % [2, 14]: 95.8%

CCc1c(F)ccc2cc(O)cc(-c3nc4c5c(nc(OC[C@@]67CCCN6C[C@H](F)C7)nc5c3F)N3C[C@H]5CC[C@H](N5)[C@H]3CO4)c12 [Crystal form B, 5-Ethyl-6-fluoro-4-((5aS,6S,9R)-1-fluoro-12-(((2R,7aS)-2-fluorotetrahydro-1H-pyrrolizin-7a(5H)-yl)methoxy)-5a,6,7,8,9,10-hexahydro-5H-4-oxa-3,10a,11,13,14-pentaaza-6,9-methanonaphtho[1,8-ab]heptalen-2-yl)naphthalen-2-ol]
Purity % 1 month ([1]; 25° C./60% RH): 99.4% | Purity % 3 months ([1]; 25° C./60% RH): 99.3% | Purity % 6 months ([1]; 25° C./60% RH): 99.3% | Purity % Initial ([1]; 25° C./60% RH): 99.4% | Purity % 1 month ([1]; 40° C./75% RH): 99.3% | Purity % 3 months ([1]; 40° C./75% RH): 99.2% | Purity % 6 months ([1]; 40° C./75% RH): 99.1% | Purity % Initial ([1]; 40° C./75% RH): 99.4% | Color and state ([2]; 40° C., 5 days, open container): Off-white solid | Crystal form ([2]; 40° C., 5 days, open container): Did not change | Purity % ([2]; 40° C., 5 days, open container): 99.3% | Color and state [2, 3]: Off-white solid | Crystal form [2, 3]: Did not change | Purity % [2, 3]: 99.3% | Color and state [2, 4]: Off-white solid | Crystal form [2, 4]: Did not change | Purity % [2, 4]: 99.2% | Color and state ([2]; 60° C., 5 days, open container): Off-white solid | Crystal form ([2]; 60° C., 5 days, open container): Did not change | Purity % ([2]; 60° C., 5 days, open container): 99.3% | Color and state [2, 5]: Off-white solid | Crystal form [2, 5]: Did not change | Purity % [2, 5]: 99.2% | Color and state [2, 6]: Off-white solid | Crystal form [2, 6]: Did not change | Purity % [2, 6]: 99.1% | Color and state ([2]; 75% RH, 5 days, open container): Off-white solid | Crystal form ([2]; 75% RH, 5 days, open container): Did not change | Purity % ([2]; 75% RH, 5 days, open container): 99.3% | Color and state [2, 7]: Off-white solid | Crystal form [2, 7]: Did not change | Purity % [2, 7]: 99.4% | Color and state [2, 8]: Off-white solid | Crystal form [2, 8]: Did not change | Purity % [2, 8]: 99.3% | Color and state [2, 9]: Off-white solid | Crystal form [2, 9]: Did not change | Purity % [2, 9]: 99.4% | Color and state [2, 10]: Off-white solid | Crystal form [2, 10]: Did not change | Purity % [2, 10]: 99.4% | Color and state [2, 11]: Off-white solid | Crystal form [2, 11]: Did not change | Purity % [2, 11]: 99.4% | Color and state ([2]; Initial, 0 days): Off-white solid | Purity % ([2]; Initial, 0 days): 99.4% | Physical and chemical properties (conclusion of influencing factor experiments) [2]: good physical and chemical properties | Color and state [2, 12]: Off-white solid | Crystal form [2, 12]: Did not change | Purity % [2, 12]: 99.0% | Color and state [2, 13]: Off-white solid | Crystal form [2, 13]: Did not change | Purity % [2, 13]: 99.1% | Color and state [2, 14]: Pale yellow solid | Crystal form [2, 14]: Did not change | Purity % [2, 14]: 97.6%
